# Source: patent US7951772B2, “Tumor-activated prodrug compounds and treatment” (La Region Wallonne, priority 1994, dated 2011)
# Experiments:
# [1] = test system: MCF7/6 human mammary carcinoma cells; assay: Accumulation in MCF7/6 tumor cells (HPLC of cell extracts)
# Description: After various times, the accumulation of the prodrugs and of their fluorescent metabolites were determined by HPLC after extraction of the products at basic pH according to a method developed in the laboratory. Accumulations, expressed in μg/mg of cellular proteins, were compared with those of DNR and of DOX as well as with those of L-Leu-DNR and L-Leu-DOX. The metabolites were identified by determining the retention times of reference products synthesized in the laboratory.
# (§7) After various times, the accumulation of the prodrugs and of their fluorescent metabolites was determined by HPLC after extraction of the products at basic pH according to a method developed in the laboratory. Accumulations, expressed in μg/mg of cellular proteins, were compared with those of DOX and of L-Leu-DOX. The metabolites were identified by determining the retention times of reference products synthesized in the laboratory.
# [2] = test system: MRC5 fibroblast cells; assay: Accumulation in MRC5 normal fibroblast cells (HPLC of cell extracts)
# Description: At various times, the accumulation of the prodrugs and of their fluorescent metabolites was determined by HPLC after extraction of the products at basic pH according to a method developed in the laboratory. Accumulations, expressed in μg/mg of cellular proteins, were compared with those of DNR and of L-Leu-DNR. The metabolites were identified by determining the retention times of reference products synthesized in the laboratory.
# as §7
# [3] = Degradation in human blood at 37 C
# [4] = test system: conditioned medium from anthracycline-resistant MCF7 cells (MCF7/ADR line); assay: Degradation in conditioned medium from MCF7/ADR mammary carcinoma cells; type: in vitro ADME, human; settings: 37 C, 1 hour
# [5] = test system: female NMRI mice; assay: In vivo acute toxicity, intravenous route; parameters: species or system mouse; weight increase of the 3 surviving mice: dose or concentration left out as unconfirmed; settings: i.v.; for mice dying: groups of 5
# Description: (§1) In the in vivo study of the acute toxicity of a medicinal product, determination of the median lethal dose (lethal dose for 50% of the animals or LD50) occupies an important place. […] The LD50 is a simple test in which increasing amounts of the test product are administered intravenously (i.v.) in a single injection and intraperitoneally (i.p.) in 5 injections, one injection daily for 5 consecutive days. The mortality of the animals is monitored as a function of time. At the end of the observation period, usually 30 days, the value of the LD50 is obtained by linear regression of the percentage mortality (on a probit scale) as a function of the logarithm of the dose administered (O. K. Chan and A. W. Hayes, Principles and methods for acute toxicity and eye irritancy, in Principles and methods of toxicology, Second edition. Ed. by A. W. Hayes, Raven Press, New York, USA (1989), pp. 169-220; D. Deprez-De Campeneere and A. Trouet. DNA-Anthracycline Complexes. I. Toxicity in mice and chemotherapeutic activity against L1210 Leukaemia off Daunorubicin-DNA and Adriamycin-DNA, Eur. J. Cancer, 16 (1980), pp. 981-986; H. E. Skipper, L. H. Schmidt, A. Goldin and J. M. Venditti. A manual on quantitative drug evaluation in experimental tumor systems, Cancer Chemother. Rep. 17 (1.962), pp. 1-178).
# (§2) The acute toxicity of these two drugs was studied via the i.v. and i.p. routes on a single strain of mouse. Female NMRI mice (nonconsanguineous SPF-Han, approximately 5 weeks old and of mean weight 14.6 grams, supplied by IFFA-CREDO Belgium) remained in quarantine for one week.
# (§3) Injections were performed systematically in the morning (single injection into the caudal vein for the i.v. route and injections on 5 consecutive days into the peritoneum for the i.p. route), using 1.0 ml syringes and sterile 30 G (i.v.) and 27 G (i.p) needles. All handling of animals was performed with gloves, and maintenance of the animals was performed systematically every week.
# (§4) DNR was injected i.v. at doses of 10, 15, 20, 25, 30 and 35 mg/kg and i.p. at doses of 2.0; 2.5; 3.0 and 3.5 mg/kg.
# (§5) The concentrations of the solutions were verified by spectrophotometry.
# (§6) From the day of injection (DO) onwards, the mice were monitored clinically, with a daily record of dead mice. The weight of the mice was measured almost every day. The observation period was extended beyond one month so that the signs of late toxicity could be spotted more readily. At the end of the study, the surviving mice were sacrificed, according to the standards pertaining to animal experiments (D. B. McGregor. Ethics in experiments on animals, in Experiments in toxicology, First edition. Ed. by D. Anderson and D. M. Conning. The Royal Society of Chemistry and The Universities Press. Belfast, Ireland (1988), pp. 512-522).
# [6] = test system: MCF7/6 human mammary carcinoma cells; assay: Cytotoxicity with respect to MCF7/6 tumor cells (72 h, Bradford protein); settings: MCF7/6 cells
# Description: (§8) After 72 hours, the cells are incubated for 48 hours in the absence of anthracycline, and the cytotoxicity is determined by measuring the cellular proteins by Bradford's technique. […] The experimental points are adjusted to a sigmoid curve which enables the point of inflection, corresponding to the dose at which half of the cells survive (IC50), to be calculated.
# (§9) After 72 hours, the cells are incubated for 48 hours in the absence of the anthracycline, and the cytotoxicity is determined by measuring the cellular proteins by Bradford's technique. […] The experimental points are adjusted to a sigmoid curve which enables the point of inflection, corresponding to the dose at which half of the cells survive (IC50), to be calculated.
# [7] = test system: conditioned medium from MCF7/6 mammary carcinoma cells; assay: Degradation in conditioned medium from MCF7/6 mammary carcinoma cells (HPLC); settings: share of each species by HPLC
# [8] = test system: MRC5 fibroblast cells; assay: Cytotoxicity with respect to MRC5 normal cells (72 h, Bradford protein); settings: MRC5 cells
# Description: as §8, §9
# [9] = test system: female NMRI mice; assay: In vivo acute toxicity, intravenous route; parameters: species or system mouse; settings: i.v., total dose of 60 mg/kg as two injections of 30 mg/kg on two consecutive days
# [10] = test system: female NMRI mice; assay: In vivo acute toxicity, intraperitoneal route, 5 consecutive days; parameters: species or system mouse; settings: for mortality: i.p. 5 consecutive days
# Description: as §1, §2, §3, §4, §5, §6
# [11] = MCF7/6 cells, 6 hours of incubation, 10 μg eq. DNR/ml
# [12] = MRC5 cells, 6 hours of incubation, 10 μg eq. DNR/ml
# [13] = 72 hours with compound then 48 hours without
structure (smiles),measurement,setting,value
"COc1cccc2c1C(=O)c1c(O)c3c(c(O)c1C2=O)C[C@@](O)(C(C)=O)C[C@@H]3O[C@H]1C[C@H](NC(=O)[C@H](CC(C)C)NC(=O)[C@H](C)NC(=O)[C@H](CC(C)C)NC(=O)CCN)[C@H](O)[C@H](C)O1 [β-Ala-Leu-Ala-Leu-DNR, β-alanyl-L-leucyl-L-alanyl-L-leucyldaunorubicin]",level of accumulation (unchanged form),"[1]; MCF7/6 cells, 10 μg eq. DNR/ml, 24 hours of incubation",~1 μg/mg of cellular proteins
same,"Intracellular concentration, DNR formed",[1]; [11],0.9 μg/mg cellular proteins
same,"Intracellular concentration, Leu-DNR formed",[1]; [11],4.5 μg/mg cellular proteins
same,"Intracellular concentration, Starting material",[1]; [11],0.3 μg/mg cellular proteins
same,"DNR found intracellularly, % of the total intracellular fluorescence","[1]; MCF7/6 cells, after 24 hours of incubation",approximately 40%
same,"intracellular levels of DNR in MCF7/6 tumor line, times as high as in MRC5 fibroblasts",[1]; after 24 hours of incubation,12 times
same,level of accumulation,"[2]; MRC5 cells, 10 μg eq. DNR/ml, 24 hours of incubation",~3.3 μg/mg of cellular proteins
same,"Intracellular concentration, DNR formed",[2]; [12],0.08 μg/mg cellular proteins
same,"Intracellular concentration, Leu-DNR formed",[2]; [12],3.1 μg/mg cellular proteins
same,"Intracellular concentration, Starting material",[2]; [12],0.03 μg/mg cellular proteins
same,"cell entry, times less than DNR",[2]; after 6 hours,300 times
same,stability when incubated in human blood,[3],stable
same,metabolite found,[4],the only metabolite now to be found is L-Leu-DNR
same,time of death after injection,[5],≤ 5 min
same,increase of mean weight,"[5]; 30 mg/kg, in 40 days",~40%
same,time of death after injection,[5]; 120 mg/kg,≤ 7 min
same,mice dying,[5]; 120 mg/kg,5
same,mortality,[5]; dose of 30 mg/kg,no mortality
same,mice dying,[5],2
same,weight increase of the 3 surviving mice,[5]; in 40 days,~30%
same,times less cytotoxic than DNR,[6]; 72 hours,244 times
same,IC50,[6]; [13],22.00 ± 7.31 µg/mL
same,"Starting material or Metabolite, Time 0","[7]; β-Ala-Leu-Ala-Leu-DNR incubated at 37 C in MCF7/6 conditioned medium concentrated 20 of 40 times, time 0",100%
same,"Starting material or Metabolite, After 1 hour","[7]; β-Ala-Leu-Ala-Leu-DNR incubated at 37 C in MCF7/6 conditioned medium, 1 hour",10%
same,"Starting material or Metabolite, After 2 hours","[7]; β-Ala-Leu-Ala-Leu-DNR incubated at 37 C in MCF7/6 conditioned medium, 2 hours",2.6%
same,times less cytotoxic than DNR,[8]; 72 hours,2230 times
same,IC50,[8]; [13],23.14 ± 4.81 µg/mL
same,mortality,[9],no mortality
same,mortality,"[10]; total dose of 60 mg/kg, groups of 5",2 mice die on day 22 and a third on day 35
same,mortality,[10]; total doses of between 10 and 45 mg/kg,no mortality
same,times less toxic than DNR (acute toxicity),[10]; i.p. administration on 5 consecutive days,at least 30 times
same,LD50 (dose close to),"[10]; i.p. on 5 consecutive days, total dose",~60 mg/kg
same,increase in mean weight,"[10]; i.p., 45 mg/kg, over the next 30 days after 7 stable days",20%
same,day on which surviving mice recover their initial weight,"[10]; i.p., total dose of 60 mg/kg",36 days
same,decrease of mean weight,"[10]; i.p., total dose of 60 mg/kg, in 15 days",~15%
same,weight gain,"[10]; i.p., total doses of between 10 and 45 mg/kg, in 40 days",+40%
